Here are results for 19 molecules from patent US20120214847A1, “2-[1-PHENYL-5-HYDROXY-4a-SUBSTITUTED-HEXAHYDROCYCLOPENTA[F]INDAZOL-5-YL]ETHYL PHENYL DERIVATIVES AS GLUCOCORTICOID RECEPTOR LIGANDS” (Merck Sharp & Dohme Corp., priority 2009, published 2012).

pKi: −log10 of the molar value.

In the experiment the target is T1, glucocorticoid receptor (Homo sapiens, UniProt P04150).
T1 construct: endogenous in cells; host or cells: HeLa (ATCC) cell lysate supernatant
T1 sequence (P04150 1-777): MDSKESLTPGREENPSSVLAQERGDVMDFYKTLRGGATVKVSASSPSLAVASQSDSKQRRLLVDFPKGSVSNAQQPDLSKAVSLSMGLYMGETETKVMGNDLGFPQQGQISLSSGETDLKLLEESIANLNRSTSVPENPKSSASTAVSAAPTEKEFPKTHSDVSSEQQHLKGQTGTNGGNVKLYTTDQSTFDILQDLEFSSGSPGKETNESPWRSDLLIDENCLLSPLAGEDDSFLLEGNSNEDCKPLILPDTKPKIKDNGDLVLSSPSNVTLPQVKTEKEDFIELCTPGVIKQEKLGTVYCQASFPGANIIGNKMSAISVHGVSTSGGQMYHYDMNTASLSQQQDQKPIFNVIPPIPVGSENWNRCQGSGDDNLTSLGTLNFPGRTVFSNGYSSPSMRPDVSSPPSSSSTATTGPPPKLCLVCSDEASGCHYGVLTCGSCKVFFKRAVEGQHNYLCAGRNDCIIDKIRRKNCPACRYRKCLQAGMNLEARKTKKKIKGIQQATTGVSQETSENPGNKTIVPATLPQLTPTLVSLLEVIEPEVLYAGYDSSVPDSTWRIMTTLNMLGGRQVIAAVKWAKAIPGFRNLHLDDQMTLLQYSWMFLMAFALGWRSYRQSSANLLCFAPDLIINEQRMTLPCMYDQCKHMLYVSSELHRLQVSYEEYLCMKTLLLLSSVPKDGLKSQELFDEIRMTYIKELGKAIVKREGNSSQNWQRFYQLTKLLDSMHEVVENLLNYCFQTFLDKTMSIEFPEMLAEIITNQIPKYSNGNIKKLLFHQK
The experiment in a line: Ligand binding assay (GRBind), 3H-dexamethasone displacement in HeLa cell lysate. The following applies: 3H-DEX tracer. The method, then:
Binding Buffer: TEGM (10 mM Tris-HCl, 1 mM EDTA, 10% glycerol, 1 mM betamecaptoethanol, 10 mM Sodium Molybdate, pH 7.2)
50% HAP Slurry: Calbiochem Hydroxylapatite, Fast Flow, in 10 mM Tris, pH 8.0 and 1 mM EDTA.
Wash Buffer: 40 mM Tris, pH7.5, 100 mM KCl, 1 mM EDTA and 1 mM EGTA. 95% EtOH Dexmethasone-methyl-3H, (DEXA*); (Amersham cat#TRK645) Dexamethasone(DEX) (Sigma, cat#01756):
Hydroxylapatite Fast Flow; Calbiochem Cat#391947
25 Molybdate=Molybdic Acid (Sigma, M1651)
5 Cells (Hall R. E., et al., European Journal of Cancer, 30A: 484-490 (1994)) HeLa (ATCC) cultured in RPMI 1640 (Gibed 11835-055) containing 20 mM Hepes, 4 mM L-glu, 10 ug/ml of human insulin (Sigma, 1-0259), 10% FBS and 20 uglml of Gentamicin (Gibco#15710072) are rinsed twice in PBS. Phenol red-free Trypsin-EDTA is diluted in the same PBS 1:10. The cell layers are rinsed with IX Trypsin, extra Trypsin is poured out, and the cell layers are incubated at 37° C. for 2 min. The flask is tapped and checked for signs of cell detachment. Once the cells begin to slide off the flask, the complete media is added. The cells are counted at this point, then diluted to the appropriate concentration and split into flasks or dishes for further culturing (Usually 1:3 to 1:6 dilution).
Preparation of HeLa Cell Lysate
When the cells are 70 to 85% confluent, they are detached as described above, and collected by centrifuging at 1000 g for 10 min at 4° C. The cell pellet is washed twice with TEGM (10 mM Tris-HCl, 1 mM EDTA, 10% glycerol, 1 mM beta-mercaptoethanol, 10 mM Sodium Molybdate, pH 7.2). After the final wash, the cells are resuspended in TEGM at a concentration of 10^7 cells/mL. The cell suspension is snap frozen in liquid nitrogen or ethanol/dry ice bath and transferred to −80° C. freezer on dry ice. Before setting up the binding assay, the frozen samples are left on ice-water to just thaw. Then the samples are centrifuged at 12,500 g to 20,000 g for 30 min at 4° C. The supernatant is used to set-up assay right away. If using 50 μL of supernatant, the test compound can be prepared in 50 μL of the TEGM buffer.
Procedure for Multiple Compound Screening
1×TEGM buffer is prepared, and the isotope-containing assay mixture is prepared in the following order: EtOH (2% final concentration in reaction), 3H-DEX (Amersham Biosciences) and 1×TEGM. [e.g. For 100 samples, 200 JlL (100×2) of EtOH+4.25 JlL of 1:10 ^3H-Dex stock+2300 μL (100×23) 1×TEGM]. The compound is serially diluted, e.g., if starting final conc. is 1 μM, and the compound is in 25 μL of solution, for duplicate samples, 75 μL of 4×1 μM solution is made and 3 μL of 100). 1M is added to 72 μL of buffer, and 1:5 serial dilution.
25 μL of ^3H-DEX (6 nM) trace and 25 μL, compound solution are first mixed together, followed by addition of 50 μL receptor solution. The reaction is gently mixed, spun briefly at about 200 rpm and incubated at 4° C. overnight. 100 μL of 50% HAP slurry is prepared and added to the incubated reaction which is then vortexed and incubated on ice for 5 to 10 min. The reaction mixture is vortexed twice more to resuspend HAP while incubating reaction. The samples in 96-well format are then washed in wash buffer using the FilterMate™ Universal Harvester plate washer (Packard). The washing process transfers HAP pellet containing ligand-bound expressed receptor to Unifilter-96 GFIB filter plate (Packard). The HAP pellet on the filter plate is incubated with […] of MICROSCINT (Packard) scintillant for 30 min before being counted on the TopCount microscintillation counter (Packard). IC50s are calculated using DEX as a reference.

For the molecule `CC[C@]12Cc3cnn(-c4ccc(F)cc4)c3C=C1CC[C@@]2(O)CCc1cncc(F)c1` [Example 21, (4aS,5R)-4a-Ethyl-1-(4-fluorophenyl)-5-[2-(5-fluoropyridin-3-yl)ethyl]-1,4,4a,5,6,7-hexahydrocyclopenta[f]indazol-5-ol], the pKi was 8.98. With `OC(C[C@]1(O)CCC2=Cc3c(cnn3-c3ccc(F)cc3)C[C@@]21C1CC1)c1ccc(F)cn1` (single isomer, unassigned) [Example 79a] the figure was 8.55; with `CC[C@]12Cc3cnn(-c4ccc(F)cc4)c3C=C1CC[C@@]2(O)CCc1cccc(F)c1CC(N)=O` [Example 60, 2-(2-{2-[(4aS,5R)-4a-Ethyl-1-(4-fluorophenyl)-5-hydroxy-1,4,4a,5,6,7-hexahydrocyclopenta[f]indazol-5-yl]ethyl}-6-fluorophenyl)acetamide], 8.63; with `CC[C@]12Cc3cnn(-c4cccnc4)c3C=C1CC[C@@]2(O)CCc1ccc(F)cc1C#N` [Example 9, 2-{2-[(4aS,5R)-4a-Ethyl-5-hydroxy-1-(pyridin-3-yl)-1,4,4a,5,6,7-hexahydrocyclopenta[f]indazol-5-yl]ethyl}-5-fluorobenzonitrile], 8.70. For `N#Cc1ccccc1CC[C@]1(O)CCC2=Cc3c(cnn3-c3ccccc3)C[C@@]21C1CC1` [Example 27, 2-{2-[(4aR,5R)-4a-Cyclopropyl-5-hydroxy-1-phenyl-1,4,4a,5,6,7-hexahydrocyclopenta[f]indazol-5-yl]ethyl}benzonitrile] the value was 9.00; for `CC[C@]12Cc3cnn(-c4ccc(F)cc4)c3C=C1CC[C@@]2(O)CCc1ncccc1S(=O)(=O)C(C)C` [Example 62, (4aS,5R)-4a-Ethyl-1-(4-fluorophenyl)-5-{2-[3-(propan-2-ylsulfonyl)pyridin-2-yl]ethyl}-1,4,4a,5,6,7-hexahydrocyclopenta[f]indazol-5-ol], 8.39; for `CC[C@]12Cc3cnn(-c4ccccc4)c3C=C1CC[C@@]2(O)CCc1cccc(F)c1C#N` [Example 15, 2-{2-[(4aS,5R)-4a-Ethyl-5-hydroxy-1-phenyl-1,4,4a,5,6,7-hexahydrocyclopenta[f]indazol-5-yl]ethyl}-6-fluorobenzonitrile], 8.89. For `CCS(=O)(=O)c1ccccc1CC[C@]1(O)CCC2=Cc3c(cnn3-c3ccc(F)cc3)C[C@@]21C1CC1` [Example 59, (4aR,5R)-4a-Cyclopropyl-5-{2-[2-(ethylsulfonyl)phenyl]ethyl}-1-(4-fluorophenyl)-1,4,4a,5,6,7-hexahydrocyclopenta[f]indazol-5-ol] the value was 8.87; for `CC[C@]12Cc3cnn(-c4cccnc4)c3C=C1CC[C@@]2(O)CCc1ccccc1C(N)=O` [Example 13, 2-{2-[(4aS,5R)-4a-Ethyl-5-hydroxy-1-(pyridin-3-yl)-1,4,4a,5,6,7-hexahydrocyclopenta[f]indazol-5-yl]ethyl}benzamide], 7.55. Consider `CC(C)(CO)NC(=O)c1cc(F)cnc1CC[C@]1(O)CCC2=Cc3c(cnn3-c3ccc(F)cc3)C[C@@]21C1CC1` [Example 48, 2-{2-[(4aR,5R)-4a-Cyclopropyl-1-(4-fluorophenyl)-5-hydroxy-1,4,4a,5,6,7-hexahydrocyclopenta[f]indazol-5-yl]ethyl}-5-fluoro-N-(1-hydroxy-2-methylpropan-2-yl)pyridine-3-carboxamide], for which the pKi is 8.45.

For the molecule `CC[C@]12Cc3cnn(-c4ccc(F)cc4)c3C=C1CC[C@@]2(O)CC(O)c1ncccc1F` (stereo partly drawn) [Example 77, (4aS,5R)-4a-Ethyl-1-(4-fluorophenyl)-5-[2-(3-fluoropyridin-2-yl)-2-hydroxyethyl]-1,4,4a,5,6,7-hexahydrocyclopenta[f]indazol-5-ol], the pKi was 8.36. As to `CC[C@]12Cc3cnn(-c4ccc(F)cc4)c3C=C1CC[C@@]2(O)CCc1cc(F)ccn1` [Example 18, (4aS,5R)-4a-Ethyl-1-(4-fluorophenyl)-5-[2-(4-fluoropyridin-2-yl)ethyl]-1,4,4a,5,6,7-hexahydrocyclopenta[f]indazol-5-ol], the pKi is 8.76. With `CC[C@]12Cc3cnn(-c4ccc(F)cc4)c3C=C1CC[C@@]2(O)CC(O)c1ccc(F)cn1` (single isomer, unassigned) [Example 69b] the figure was 8.54. Consider `NC(=O)c1cccnc1CC[C@]1(O)CCC2=Cc3c(cnn3-c3ccc(F)cc3)C[C@@]21C1CC1` [Example 1, 2-{2-[(4aR,5R)-4a-Cyclopropyl-1-(4-fluorophenyl)-5-hydroxy-1,4,4a,5,6,7-hexahydrocyclopenta[f]indazol-5-yl]ethyl}pyridine-3-carboxamide], for which the pKi is 8.35. With `CC[C@]12Cc3cnn(-c4cccc(F)c4)c3C=C1CC[C@@]2(O)CCc1ccccc1C(N)=O` [Example 11, 2-{2-[(4aS,5R)-4a-Ethyl-1-(3-fluorophenyl)-5-hydroxy-1,4,4a,5,6,7-hexahydrocyclopenta[f]indazol-5-yl]ethyl}benzamide] the figure was 8.49; with `CC[C@]12Cc3cnn(-c4ccccc4)c3C=C1CC[C@@]2(O)CCc1ccc(F)cc1C(N)=O` [Example 6], 8.50. `O=S(=O)(c1ccccc1CC[C@]1(O)CCC2=Cc3c(cnn3-c3ccc(F)cc3)C[C@@]21C1CC1)C1CC1` [Example 63, (4aR,5R)-4a-Cyclopropyl-5-{2-[2-(cyclopropylsulfonyl)phenyl]ethyl}-1-(4-fluorophenyl)-1,4,4a,5,6,7-hexahydrocyclopenta[f]indazol-5-ol] showed a pKi of 8.77.

As for `N#Cc1ccnc(CC[C@]2(O)CCC3=Cc4c(cnn4-c4ccc(F)cc4)C[C@@]32C2CC2)c1` [Example 35, 2-{2-[(4aR,5R)-4a-Cyclopropyl-1-(4-fluorophenyl)-5-hydroxy-1,4,4a,5,6,7-hexahydrocyclopenta[f]indazol-5-yl]ethyl}pyridine-4-carbonitrile], the pKi is 8.70. `NC(=O)c1ccccc1CC[C@]1(O)CCC2=Cc3c(cnn3-c3ccc(F)cc3)C[C@@]21C1CC1` [Example 23, 2-{2-[(4aR,5R)-4a-Cyclopropyl-1-(4-fluorophenyl)-5-hydroxy-1,4,4a,5,6,7-hexahydrocyclopenta[f]indazol-5-yl]ethyl}benzamide] showed a pKi of 8.74.
